Laboratory results as given in patent publication US7943162B2, “Drug delivery device” (Alcon, Inc., priority 1999, dated 2011).

Test: ocular pharmacokinetic study with rabbits implanted with ophthalmic drug delivery device 50 (LC-MS/MS tissue concentration)
Type: in vivo, New Zealand White rabbits
Conditions: device 50 implanted on outer sclera below Tenon's capsule
From the text: Device 50 was constructed as shown in FIGS. 5 through 6B, with the following dimensions. […] Inner core 106 was a cylindrical tablet with a diameter of about 5.0 mm and a thickness of about 1.5 mm. […] The pharmaceutically active agent used in tablet 106 was 4,9(11)-Pregnadien-17α,21-diol-3,20-dione, an angiostatic steroid sold by Steraloids, Inc. of Wilton, N.H., and which is more fully disclosed in U.S. Pat. Nos. 5,770,592 and 5,679,666. The formulation of tablet 106 consisted of 99.75 weight percent 4,9(11)-Pregnadien-17α,21-diol-3,20-dione, and 0.25 weight percent magnesium stearate.
At one week after implantation, 4 rabbits were euthanized and their right eyes were enucleated. The device 50 was removed from the eyes, and the location of tablet 106 was marked on their sclerae. Following the removal of the anterior segment and the vitreous of each eye and inversion of the thus formed eye-cup, a 10 mm diameter circular zone of retinal tissue, concentric with and below the location of tablet 106 on the sclera, was harvested (the “target site”). […] All these tissues were separately homogenized, and the concentration of angiostatic steroid in each of these tissues was determined via an ocular pharmacokinetic study using high performance liquid chromatography and mass spectrometry analysis (LC-MS/MS). […]

C[C@]12CCC(=O)C=C1CC[C@@H]1C2=CC[C@@]2(C)[C@H]1CC[C@]2(O)C(=O)CO [4,9(11)-Pregnadien-17α,21-diol-3,20-dione]
mean concentration of angiostatic steroid in the retina and the choroid at the target site as a function of time (right eye, tablet 99.75 wt% drug, target site below tablet, 1, 3, 6, 9, 12 weeks after implantation, up to twelve weeks): pharmaceutically effective and generally constant amount | levels of angiostatic steroid in the retina and the choroid at the second and third sites (second site remote from the target site, on the other side of the optic nerve, third site between the second site and the target site): at or near zero
